Test results: US7071293B1, “Alpha helical peptides with broad spectrum antimicrobial activity that are insensitive to salt” (priority 1999, dated 2006)
Read-outs that look alike come from different tables or passages of the source. Ends that are not written are not given here.

Assays:
E. coli ML-35p = conditions: for E. coli ML-35p MIC, 0 mM NaCl: underlay 0 mM NaCl; for E. coli ML-35p MIC, 0 mM NaCl / E. coli ML-35p MIC, 175 mM NaCl: Table 15; for E. coli ML-35p MIC, 175 mM NaCl: underlay 175 mM NaCl
E. coli DH-5α = conditions: DH-5α
P. aeruginosa PAO1 = conditions: for EC50 P. aeruginosa PAO1 μg/ml ± sem: average ± sem
B. cepacia ATCC 25416 = test: Two stage radial diffusion assay (MIC); type: cell-based; parameters: unit not given here; conditions: underlay 0 mM NaCl
N. gonorrhoeae = test: Two stage radial diffusion assay (MIC); type: cell-based; parameters: unit not given here; conditions: done only at 100 mM NaCl
L. monocytogenes EGD = test: Two stage radial diffusion assay (MIC); type: cell-based; parameters: unit not given here; conditions: underlay 0 mM NaCl
[1] = ionic strength 25 mM, avg ± sem
[2] = ionic strength 175 mM, avg ± sem

Substance: RRIIRKIIHIIK-NH2 [Peptide 17]
- E. coli ML-35p MIC, 0 mM NaCl (E. coli ML-35p): 0.29 ± 0.06 µg/mL
- E. coli ML-35p MIC, 175 mM NaCl (E. coli ML-35p): >79.1 µg/mL
- E. coli DH-5α MIC, 0 mM NaCl (E. coli DH-5α): 0.51 ± 0.09 µg/mL
- E. coli DH-5α MIC, 175 mM NaCl (E. coli DH-5α): 46.1 ± 16.1 µg/mL
- P. aeruginosa PA-01 MIC, 0 mM NaCl (P. aeruginosa PA-01): 0.69 ± 0.08 µg/mL
- P. aeruginosa PA-01 MIC, 175 mM NaCl (P. aeruginosa PA-01): 17.2 ± 4.6 µg/mL
- P. aeruginosa MR-3007 MIC, 0 mM NaCl (P. aeruginosa MR 3007): 0.72 ± 0.15 µg/mL
- P. aeruginosa MR-3007 MIC, 175 mM NaCl (P. aeruginosa MR 3007): >79.1 µg/mL
- MRSA ATCC 33591 MIC, 0 mM NaCl (MRSA ATCC 33591): 11.9 ± 4.7 µg/mL
- MRSA ATCC 33591 MIC, 175 mM NaCl (MRSA ATCC 33591): >79.1 µg/mL
- S. aureus 930918-3 MIC, 0 mM NaCl (S. aureus 930918-3): 2.29 ± 0.07 µg/mL
- S. aureus 930918-3 MIC, 175 mM NaCl (S. aureus 930918-3): >79.1 µg/mL

Substance: KNLRRIIRKIIHIIKKYG-NH2 [SMAP29X-18A]
- EC50 P. aeruginosa PAO1 (P. aeruginosa PAO1; [1]): 0.22 ± 0.00 µg/mL
- EC50 P. aeruginosa PAO1 (P. aeruginosa PAO1; [2]): 0.49 ± 0.02 µg/mL

Substance: NLRRIIRKIIHIIKKY [SMAP29X-16A]
- EC50 P. aeruginosa PAO1 (P. aeruginosa PAO1; [1]): 0.90 ± 0.54 µg/mL
- EC50 P. aeruginosa PAO1 (P. aeruginosa PAO1; [2]): 1.78 ± 0.26 µg/mL

Substance: RKRLRKFRNKIKEKLKKIGQKI [Peptide 21]
- E. coli ML-35p MIC, 0 mM NaCl (E. coli ML-35p): 0.2 µg/mL
- B. cepacia ATCC 25416 in underlays of low, normal and high salinity, 0 mM NaCl (B. cepacia ATCC 25416): >250
- N. gonorrhoeae F 62 (serum-sensitive) (N. gonorrhoeae; strain F 62 (serum-sensitive)): 22.0
- N. gonorrhoeae FA 19 (serum-resistant) (N. gonorrhoeae; strain FA 19 (serum-resistant)): >250
- P. aeruginosa MR-3007 MIC, 0 mM NaCl (P. aeruginosa MR 3007): 0.2 µg/mL
- L. monocytogenes in underlays of low, normal and high salinity, 0 mM NaCl (L. monocytogenes EGD): 7.0
- MRSA ATCC 33591 MIC, 0 mM NaCl (MRSA ATCC 33591): 8.1 µg/mL
- S. aureus 930918-3 MIC, 0 mM NaCl (S. aureus 930918-3): 7.9 µg/mL

Substance: RRIIRKIIHIIK-NH2 [SMAP29X-12]
- EC50 P. aeruginosa PAO1 μg/ml ± sem (P. aeruginosa PAO1; ionic strength 25 mM): 0.31 ± 0.01 µg/mL
- EC50 P. aeruginosa PAO1 μg/ml ± sem (P. aeruginosa PAO1; ionic strength 175 mM): 3.83 ± 0.22 µg/mL

Substance: NLRRIIRKIIHIIKKY-NH2 [SMAP29X-16B]
- EC50 P. aeruginosa PAO1 (P. aeruginosa PAO1; [1]): 0.75 µg/mL
- EC50 P. aeruginosa PAO1 (P. aeruginosa PAO1; [2]): 3.78 µg/mL

Substance: KIKEKLKKIGQKIQG [CAP18-15b]
- MIC E. coli [NaCl] High (E. coli ML-35p; high salt underlay (10 mM sodium phosphate buffer +100 mM NaCl, pH 7.4), Table 13): >250 µg/mL
- MIC E. coli [NaCl] Low (E. coli ML-35p; low salt underlay (10 mM sodium phosphate buffer, pH 7.4), Table 13): 1.6 µg/mL
- EC50 P. aeruginosa PAO1 (P. aeruginosa PAO1; PAO1): >80 µg/mL
- EC50 P. aeruginosa PAO1 (P. aeruginosa PAO1; [1]): 10.3 ± 0.3 µg/mL
- MIC P. aeruginosa [NaCl] High (P. aeruginosa MR 3007; MR 3007, pH 7.4): >250 µg/mL
- MIC P. aeruginosa [NaCl] Low (P. aeruginosa MR 3007; MR 3007, pH 7.4): 8.7 µg/mL
- EC50 (E. coli DH5α; DH5α): 4.15 ± 1.04 µM
- EC50 E. coli DH5α (E. coli DH5α; [1]): 7.23 ± 1.81 µg/mL
- MIC MRSA [NaCl] High (MRSA ATCC 33591; ATCC 33591, pH 7.4): >250 µg/mL
- MIC MRSA [NaCl] Low (MRSA ATCC 33591; ATCC 33591, pH 7.4): >250 µg/mL
- MIC S. aureus [NaCl] High (S. aureus 930918-3; 930918-3, pH 7.4): >250 µg/mL
- MIC S. aureus [NaCl] Low (S. aureus 930918-3; 930918-3, pH 7.4): >250 µg/mL

Substance: LRRIIRKIIHIIKK [Peptide 12]
- E. coli ML-35p MIC, 0 mM NaCl (E. coli ML-35p): 0.68 ± 0.07 µg/mL
- E. coli ML-35p MIC, 175 mM NaCl (E. coli ML-35p): >79.1 µg/mL
- E. coli DH-5α MIC, 0 mM NaCl (E. coli DH-5α): 1.36 ± 0.19 µg/mL
- E. coli DH-5α MIC, 175 mM NaCl (E. coli DH-5α): 19.1 ± 5.0 µg/mL
- P. aeruginosa PA-01 MIC, 0 mM NaCl (P. aeruginosa PA-01): 0.98 ± 0.05 µg/mL
- P. aeruginosa PA-01 MIC, 175 mM NaCl (P. aeruginosa PA-01): 11.9 ± 4.7 µg/mL
- P. aeruginosa MR-3007 MIC, 0 mM NaCl (P. aeruginosa MR 3007): 0.98 ± 0.08 µg/mL
- P. aeruginosa MR-3007 MIC, 175 mM NaCl (P. aeruginosa MR 3007): 46.3 ± 9.1 µg/mL
- MRSA ATCC 33591 MIC, 0 mM NaCl (MRSA ATCC 33591): 11.0 ± 3.96 µg/mL
- MRSA ATCC 33591 MIC, 175 mM NaCl (MRSA ATCC 33591): >79.1 µg/mL
- S. aureus 930918-3 MIC, 0 mM NaCl (S. aureus 930918-3): 2.40 ± 0.17 µg/mL
- S. aureus 930918-3 MIC, 175 mM NaCl (S. aureus 930918-3): 79.1 ± 0 µg/mL

Substance: RRIIRKIIHII-NH2 [SMAP29X-11A]
- EC50 P. aeruginosa PAO1 μg/ml ± sem (P. aeruginosa PAO1; ionic strength 25 mM): 0.38 ± 0.04 µg/mL
- EC50 P. aeruginosa PAO1 μg/ml ± sem (P. aeruginosa PAO1; ionic strength 175 mM): 4.92 ± 0.43 µg/mL

Substance: LRRIIRKIIHIIK-NH2 [Peptide 15]
- E. coli ML-35p MIC, 0 mM NaCl (E. coli ML-35p): 0.64 ± 0.15 µg/mL
- E. coli ML-35p MIC, 175 mM NaCl (E. coli ML-35p): 12.6 ± 2.8 µg/mL
- E. coli DH-5α MIC, 0 mM NaCl (E. coli DH-5α): 0.82 ± 0.12 µg/mL
- E. coli DH-5α MIC, 175 mM NaCl (E. coli DH-5α): 5.35 ± 1.87 µg/mL
- P. aeruginosa PA-01 MIC, 0 mM NaCl (P. aeruginosa PA-01): 1.07 ± 0.19 µg/mL
- P. aeruginosa PA-01 MIC, 175 mM NaCl (P. aeruginosa PA-01): 4.66 ± 1.57 µg/mL
- P. aeruginosa MR-3007 MIC, 0 mM NaCl (P. aeruginosa MR 3007): 0.96 ± 0.08 µg/mL
- P. aeruginosa MR-3007 MIC, 175 mM NaCl (P. aeruginosa MR 3007): 9.14 ± 4.81 µg/mL
- MRSA ATCC 33591 MIC, 0 mM NaCl (MRSA ATCC 33591): 2.49 ± 0.27 µg/mL
- MRSA ATCC 33591 MIC, 175 mM NaCl (MRSA ATCC 33591): 65.8 ± 13.3 µg/mL
- S. aureus 930918-3 MIC, 0 mM NaCl (S. aureus 930918-3): 1.32 ± 0.22 µg/mL
- S. aureus 930918-3 MIC, 175 mM NaCl (S. aureus 930918-3): 6.39 ± 1.12 µg/mL

Substance: RRIIRKIIHIIKK-NH2 [SMAP29X-13B]
- EC50 P. aeruginosa PAO1 μg/ml ± sem (P. aeruginosa PAO1; ionic strength 25 mM): 0.22 ± 0.02 µg/mL
- EC50 P. aeruginosa PAO1 μg/ml ± sem (P. aeruginosa PAO1; ionic strength 175 mM): 1.51 ± 0.09 µg/mL

Substance: IRRIIRKIIHIIKK-NH2 [Peptide 13]
- P. aeruginosa PA-01 MIC, 0 mM NaCl (P. aeruginosa PA-01): 1.03 ± 0.08 µg/mL
- P. aeruginosa PA-01 MIC, 175 mM NaCl (P. aeruginosa PA-01): 7.45 ± 0.87 µg/mL
- P. aeruginosa MR-3007 MIC, 0 mM NaCl (P. aeruginosa MR 3007): 0.84 ± 0.06 µg/mL
- P. aeruginosa MR-3007 MIC, 175 mM NaCl (P. aeruginosa MR 3007): 19.7 ± 2.2 µg/mL
- MRSA ATCC 33591 MIC, 0 mM NaCl (MRSA ATCC 33591): 2.39 ± 0.07 µg/mL
- MRSA ATCC 33591 MIC, 175 mM NaCl (MRSA ATCC 33591): >79.1 µg/mL
- S. aureus 930918-3 MIC, 0 mM NaCl (S. aureus 930918-3): 1.03 ± 0.03 µg/mL
- S. aureus 930918-3 MIC, 175 mM NaCl (S. aureus 930918-3): 5.93 ± 1.12 µg/mL

Substance: LRRIIRKIIHIIKK [SMAP29X-14B]
- EC50 P. aeruginosa PAO1 (P. aeruginosa PAO1; [1]): 0.55 ± 0.03 µg/mL
- EC50 P. aeruginosa PAO1 (P. aeruginosa PAO1; [2]): 5.55 ± 0.42 µg/mL
